Results on 18 molecules are retold here after US10561657B2, “Pyrrolopyrimidine compound” (CENTAURUS BIOPHARMA CO., LTD., priority 2014, dated 2020).

The target in data set [1] is JAK2 kinase (wild type, JAK2^WT) (Homo sapiens (Human), UniProt O60674). Nature of the data set: HTRF assay for enzymatic activity (IC50), JAK2 wild type. Type of data set: biochemical. As to conditions: ATP at Km, 120 min, 23 °C. As to the method:
1. Assay for Enzymatic Activity (IC50) of Compounds
A testing platform for kinase activity of JAK2 (wild type and V617F mutant type) was established based on Homogeneous Time-Resolved Fluorescence (HTRF) assay, and the activities of the compounds were tested using the platform. The compounds were subjected to three-fold gradient dilutions with 100% DMSO with a starting concentration of 1 mM (11 dilutions in total). 4 μL of each dilution was added to 96 μL of reaction buffer (50 mM HEPES, pH 7.4, 10 mM MgCl2, 1 mM EGTA, 0.01% Tween-20, 0.005% BAS, 2 mM DTT) and mixed homogeneously. […] The mixture was mixed homogeneously by centrifugation. […] The plate was incubated in the incubator for 1 hr, and then the fluorescence values were read on Envision (available from PerkinElmer). […] The enzymatic activity was representd by a ratio of the two readout at the two emission wavelengths. The enzymatic activity for each compound was tested at 11 concentrations, and IC50 values of the compounds were obtained by calculating the data using GraFit6.0 software (Erithacus Software). 2. Assay for cell proliferation activity (IC50) of compounds

Data set [2] is described as follows: Pharmacokinetic assay in adult beagles (IV 5 mg/kg, PO 10 mg/kg). Type of data set: in vivo. The settings on record: for half-life / AUC(0-inf) / Cmax / Tmax: beagle, dog, plasma; for AUC(0-inf): read-out: AUCINF—obs. The source says: Pharmacokinetic Assay in Adult Beagles
Data set [3] in a line: Pharmacokinetic assay in adult female SD rats (30 mg/kg oral). Type of data set: in vivo.
Setting [4] is: both sexes, IV 5 mg/kg, average.
The mark [5] stands for this setting: both sexes, PO 10 mg/kg, average.

In general, IC50 refers to the midpoint of a concentration-inhibition curve. The low end stands for inhibition by little substance, the high end for a need for much substance. The term half-life denotes how long it takes for the measured level to halve. A lower half-life goes with fast loss. The term Cmax denotes the peak of the concentration-time curve. For orientation: Tmax means the time at which the peak concentration occurs.

Structures are written as SMILES. Read-outs that look alike come from different tables or passages of the source.

Chain of JAK2 kinase (wild type, JAK2^WT) (O60674 whole entry): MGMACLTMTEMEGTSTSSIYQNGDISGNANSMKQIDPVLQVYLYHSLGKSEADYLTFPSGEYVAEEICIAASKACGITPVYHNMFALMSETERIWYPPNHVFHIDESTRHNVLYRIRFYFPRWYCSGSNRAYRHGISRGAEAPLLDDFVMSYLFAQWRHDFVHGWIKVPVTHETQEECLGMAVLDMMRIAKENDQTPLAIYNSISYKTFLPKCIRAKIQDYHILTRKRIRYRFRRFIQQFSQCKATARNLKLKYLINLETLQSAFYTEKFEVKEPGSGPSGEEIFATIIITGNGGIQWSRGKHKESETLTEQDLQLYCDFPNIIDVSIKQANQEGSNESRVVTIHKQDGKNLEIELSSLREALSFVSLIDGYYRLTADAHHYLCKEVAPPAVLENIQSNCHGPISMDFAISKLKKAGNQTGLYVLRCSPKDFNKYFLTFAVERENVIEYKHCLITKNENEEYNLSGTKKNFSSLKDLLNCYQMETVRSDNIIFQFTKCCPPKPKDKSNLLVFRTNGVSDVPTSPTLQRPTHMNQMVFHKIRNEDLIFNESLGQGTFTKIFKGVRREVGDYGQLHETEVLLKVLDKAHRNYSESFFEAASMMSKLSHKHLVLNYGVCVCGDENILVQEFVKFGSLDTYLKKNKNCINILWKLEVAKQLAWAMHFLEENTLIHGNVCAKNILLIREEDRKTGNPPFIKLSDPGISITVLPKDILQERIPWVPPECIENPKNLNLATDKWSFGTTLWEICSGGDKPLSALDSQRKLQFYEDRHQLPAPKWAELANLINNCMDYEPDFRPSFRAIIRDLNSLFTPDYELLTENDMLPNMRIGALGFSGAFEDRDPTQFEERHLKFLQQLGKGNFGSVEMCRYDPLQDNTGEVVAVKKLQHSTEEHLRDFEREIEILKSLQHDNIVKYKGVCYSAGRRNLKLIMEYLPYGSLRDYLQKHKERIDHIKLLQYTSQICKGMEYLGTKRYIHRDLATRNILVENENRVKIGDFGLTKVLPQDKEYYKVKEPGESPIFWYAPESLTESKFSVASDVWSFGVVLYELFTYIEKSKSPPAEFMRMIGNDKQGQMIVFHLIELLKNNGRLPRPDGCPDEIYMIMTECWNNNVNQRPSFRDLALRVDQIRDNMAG

For the molecule `N#CCC(C1CCCC1)n1ncc(-c2ncnc3[nH]ccc23)c1N` (stereo not shown) [Example 3, 3-[5-amino-4-(7H-pyrrolo[2,3-d]pyrimidin-4-yl)-1H-pyrazol-1-yl]-3-cyclopentylpropanenitrile], the IC50 in data set [1] was under 0.02 µM.
For the molecule `N#CC[C@H](C1CCCC1)n1cc(-c2ncnc3[nH]ccc23)c(N)n1` [Example 5, (3R)-3-[3-amino-4-(7H-pyrrolo[2,3-d]pyrimidin-4-yl)-1H-pyrazol-1-yl]-3-cyclopentylpropanenitrile], in data set [1], the IC50 is under 0.02 µM. Moreover, in data set [2] (IV 5 mg/kg, average), the Cl_obs amounted to 8.82 mL/min/kg and the Vss_obs was determined as 1.974 L/kg. In data set [2] (IV 5 mg/kg, female), the Cl_obs was 7.37 mL/min/kg, the Vss_obs stood at 1.86 L/kg, the half-life was 3.65 h and the AUC(0-inf) was 11500 ng·h/mL. Further, in data set [2] (IV 5 mg/kg, male), the Cl_obs turned out to be 10.3 mL/min/kg, the Vss_obs is 2.089 L/kg, the half-life was 3.64 h and the AUC(0-inf) stood at 8190 ng·h/mL. In addition, in data set [2] (PO 10 mg/kg, average), the F was 114%. For the same molecule, in data set [2] (PO 10 mg/kg, female), the F is 119%, the peak level (Cmax) was 3980 ng/mL, the Tmax is 1.13 h and the half-life was 3.03 h. In data set [2] (PO 10 mg/kg, female), the AUC(0-inf) is 27400 ng·h/mL. Further, in data set [2] (PO 10 mg/kg, male), the F was 107%, the peak level (Cmax) was 3830 ng/mL, the Tmax amounted to 0.25 h and the half-life is 3.04 h. The AUC(0-inf) in data set [2] (PO 10 mg/kg, male) came out at 17500 ng·h/mL. For the same molecule, in data set [2] (setting [4]), the half-life is 3.64 h and the AUC(0-inf) stood at 9850 ng·h/mL. Besides, in data set [2] (setting [5]), the Cmax was 3900 ng/mL, the Tmax is 0.69 h, the half-life was 3.03 h and the AUC(0-inf) stood at 22500 ng·h/mL. In data set [3], the AUCINFobs is 6316 ng·h/mL, the Cmax is reported as 2204 ng/mL, the Tmax stood at 0.58 h and the t1/2 was 2.20 h.
With `N#CC[C@@H](C1CCCC1)n1cc(-c2ncnc3[nH]ccc23)c(N)n1` [Example 6, (3S)-3-[3-amino-4-(7H-pyrrolo[2,3-d]pyrimidin-4-yl)-1H-pyrazol-1-yl]-3-cyclopentylpropanenitrile], in data set [1], the IC50 was under 0.02 µM.
Same read-out and setting: the result for `CC(=O)Nc1nn(C(CC#N)C2CCCC2)cc1-c1ncnc2[nH]ccc12` (stereo not shown) [Example 9, N-[1-(2-cyano-1-cyclopentylethyl)-4-(7H-pyrrolo[2,3-d]pyrimidin-4-yl)-1H-pyrazol-3-yl]acetamide] reads under 0.02 µM; that for `N#CCC(C1CCCC1)n1cc(-c2ncnc3[nH]ccc23)c(NCCN2CCOCC2)n1` (stereo not shown) [Example 11, 3-cyclopentyl-3-[3-(2-morpholinylethylamino)-4-(7H-pyrrolo[2,3-d]pyrimidin-4-yl)-1H-pyrazol-1-yl]propionitrile], under 0.02 µM.
In data set [1], `N#CCC(C1CCCC1)n1cc(-c2ncnc3[nH]ccc23)c(NC(=O)CN2CCOCC2)n1` (stereo not shown) [Example 12, N-[1-(2-cyano-1-cyclopentylethyl)-4-(7H-pyrrolo[2,3-d]pyrimidin-4-yl)-1H-pyrazol-3-yl]-2-morpholinylacetamide] showed an IC50 of under 0.02 µM.
Same read-out and setting: the result for `N#CCC(C1CCCC1)n1cc(-c2ncnc3[nH]ccc23)c(NCCC(=O)N2CCOCC2)n1` (stereo not shown) [Example 13, 3-cyclopentyl-3-[3-(3-morpholinyl-3-oxopropylamino)-4-(7H-pyrrolo[2,3-d]pyrimidin-4-yl)-1H-pyrazol-1-yl]propionitrile] reads under 0.02 µM; that for `N#CCC(C1CCCC1)n1cc(-c2ncnc3[nH]ccc23)c(NCC(=O)N2CCOCC2)n1` (stereo not shown) [Example 14, 3-cyclopentyl-3-[3-(2-morpholinyl-2-oxoethylamino)-4-(7H-pyrrolo[2,3-d]pyrimidin-4-yl)-1H-pyrazol-1-yl]propionitrile], under 0.02 µM; that for `CCOC(=O)CCC(=O)Nc1nn(C(CC#N)C2CCCC2)cc1-c1ncnc2[nH]ccc12` (stereo not shown) [Example 15, Ethyl 4-[1-(2-cyano-1-cyclopentylethyl)-4-(7H-pyrrolo[2,3-d]pyrimidin-4-yl)-1H-pyrazol-3-ylamino]-4-oxobutanoate], under 0.02 µM.
On the same count and under the same terms, in the case of `N#CCC(C1CCCC1)n1cc(-c2ncnc3[nH]ccc23)c(N2C(=O)CCC2=O)n1` (stereo not shown) [Example 16, 3-cyclopentyl-3-[3-(succinimid-1-yl)-4-(7H-pyrrolo[2,3-d]pyrimidin-4-yl)-1H-pyrazol-1-yl]propionitrile] it was under 0.1 µM; in that of `N#CCC(C1CCCC1)n1cc(-c2ncnc3[nH]ccc23)c(NC2CC(C(=O)N3CCOCC3)C2)n1` (stereo not shown) [Example 17, 3-[3-(3-morpholin-4-carbonyl)cyclobutylamino-4-(7H-pyrrolo[2,3-d]pyrimidin-4-yl)-1H-pyrazolyl]-3-cyclopentylpropanenitrile], under 0.02 µM; in that of `N#CCC(C1CCCC1)n1cc(-c2ncnc3[nH]cc(Br)c23)c(Br)n1` (stereo not shown) [Example 18, 3-[3-bromo-4-(5-bromo-7H-pyrrolo[2,3-d]pyrimidin-4-yl)-1H-pyrazol-1-yl]-3-cyclopentylpropanenitrile], under 1 µM.
Still for that read-out and setting: in the case of `N#CCC(C1CCCC1)n1cc(-c2ncnc3[nH]ccc23)c(Br)n1` (stereo not shown) [Example 19, 3-[3-bromo-4-(7H-pyrrolo[2,3-d]pyrimidin-4-yl)-1H-pyrazol-1-yl]-3-cyclopentylpropanenitrile] it was under 0.02 µM.
With `N#CCC(C1CCCC1)n1cc(-c2ncnc3[nH]ccc23)c(C(N)=O)n1` (stereo not shown) [Example 24, 1-(2-cyano-1-cyclopentylethyl)-4-(7H-pyrrolo[2,3-d]pyrimidin-4-yl)-1H-pyrazol-3-formamide], in data set [1], the IC50 is under 0.02 µM.
Regarding `CNC(=O)c1nn(C(CC#N)C2CCCC2)cc1-c1ncnc2[nH]ccc12` (stereo not shown) [Example 25, 1-(2-cyano-1-cyclopentylethyl)-N-methyl-4-(7H-pyrrolo[2,3-d]pyrimidin-4-yl)-1H-pyrazol-3-formamide], in data set [1], the IC50 is under 0.02 µM.
As for `N#CCC(C1CCCC1)n1cc(-c2ncnc3[nH]ccc23)c(C(=O)NCCN)n1` (stereo not shown) [Example 26, N-(2-aminoethyl)-1-(2-cyano-1-cyclopentylethyl)-4-(7H-pyrrolo[2,3-d]pyrimidin-4-yl)-1H-pyrazol-3-formamide], the IC50 in data set [1] is under 0.02 µM.
`N#CCC(C1CCCC1)n1cc(-c2ncnc3[nH]ccc23)c(C#N)n1` (stereo not shown) [Example 27, 1-(2-cyano-1-cyclopentylethyl)-4-(7H-pyrrolo[2,3-d]pyrimidin-4-yl)-1H-pyrazol-3-carbonitrile] showed an IC50 in data set [1] of under 0.02 µM.
On to `N#CCC(C1CCCC1)n1cc(-c2ncnc3[nH]ccc23)c(CO)n1` (stereo not shown) [Example 28, 3-cyclopentyl-3-[3-(hydroxymethyl)-4-(7H-pyrrolo[2,3-d]pyrimidin-4-yl)-1H-pyrazol-1-yl]propionitrile], for which, in data set [1], the IC50 was under 0.02 µM.
